Measurements reported in ChEMBL document CHEMBL1121932, “Structure-anti-Parkinson activity relationships in the aminoadamantanes. Influence of bridgehead substitution” (J Med Chem, 1982).

Tests used:
Mus musculus [1] = test: Modification of circling behavior in mice with unilateral striatal lesions produced by 6-hydroxydopamine injection was measured at a dose of 0.10 mmol/kg; type: functional
Mus musculus [2] = test: Stimulation of spontaneous locomotor activity of compound was measured in mice at a dose of 0.20 mmol/kg); type: functional
Mus musculus [3] = test: Modification of circling behavior in mice with unilateral striatal lesions produced by 6-hydroxydopamine injection was measured at a dose of 0.15 mmol/kg; type: functional
Mus musculus [4] = test: Stimulation of spontaneous locomotor activity of compound was measured in mice at a dose of 0.0125 mmol/kg); type: functional
Mus musculus [5] = test: Modification of circling behavior in mice with unilateral striatal lesions produced by 6-hydroxydopamine injection was measured at a dose of 0.05 mmol/kg; type: functional
Mus musculus [6] = test: Modification of circling behavior in mice with unilateral striatal lesions produced by 6-hydroxydopamine injection was measured at a dose of 0.20 mmol/kg; type: functional
Mus musculus [7] = test: Stimulation of spontaneous locomotor activity of compound was measured in mice at a dose of 0.025 mmol/kg); type: functional; set-up: unit not given here
Mus musculus [8] = test: Stimulation of spontaneous locomotor activity of compound was measured in mice at a dose of 0.10 mmol/kg); type: functional; set-up: unit not given here
Mus musculus [9] = test: Stimulation of spontaneous locomotor activity of compound was measured in mice at a dose of 0.05 mmol/kg); type: functional; set-up: unit not given here
Mus musculus [10] = test: Stimulation of spontaneous locomotor activity of compound was measured in mice at a dose of 0.4 mmol/kg); type: functional
Mus musculus [11] = test: Stimulation of spontaneous locomotor activity of compound was measured in mice at a dose of 0.1 mmol/kg); type: functional
Mus musculus [12] = test: Modification of circling behavior in mice with unilateral striatal lesions produced by 6-hydroxydopamine injection was measured at a dose of 0.2 mmol/kg; type: functional
Mus musculus [13] = test: Stimulation of spontaneous locomotor activity of compound was measured in mice at a dose of 0.2 mmol/kg); type: functional
[14] = Partition coefficient (logP); type: physicochemical; details: octanol/water
Mus musculus [15] = test: Modification of circling behavior in mice with unilateral striatal lesions produced by 6-hydroxydopamine injection was measured at a dose of 0.013 mmol/kg; type: functional
Mus musculus [16] = test: Stimulation of spontaneous locomotor activity of compound was measured in mice at a dose of 0.4 mmol/kg); Lethal; type: functional, organism-based
Mus musculus [17] = test: Modification of circling behavior in mice with unilateral striatal lesions produced by 6-hydroxydopamine injection was measured at a dose of 0.1 mmol/kg; type: functional
Mus musculus [18] = test: Stimulation of spontaneous locomotor activity of compound was measured in mice at a dose of 0.02 mmol/kg); type: functional
Mus musculus [19] = test: Stimulation of spontaneous locomotor activity of compound was measured in mice at a dose of 0.01 mmol/kg); type: functional
Mus musculus [20] = test: Modification of circling behavior in mice with unilateral striatal lesions produced by 6-hydroxydopamine injection was measured at a dose of 0.027 mmol/kg; type: functional
Mus musculus [21] = test: Stimulation of spontaneous locomotor activity of compound was measured in mice at a dose of 0.04 mmol/kg); type: functional
Mus musculus [22] = test: Stimulation of spontaneous locomotor activity of compound was measured in mice at a dose of 0.15 mmol/kg); type: functional
Mus musculus [23] = test: Stimulation of spontaneous locomotor activity of compound was measured in mice at a dose of 0.30 mmol/kg); type: functional

Row | Structure (SMILES) | Net turns/min (Mus musculus [1]) | Activity (Mus musculus [2]) | Net turns/min (Mus musculus [3]) | Activity (Mus musculus [7]) | Activity (Mus musculus [8]) | Activity (Mus musculus [9]) | Activity (Mus musculus [11]) | Activity (Mus musculus [13]) | logP [14] | further results
1 | CC12CC3CC(C)(C1)CC(N)(C3)C2 [MEMANTINE] | 2.6 | 1378 | 4.3 | 264 | 916 | 377 | – | – | – | Activity (Mus musculus [4]): 181; Net turns/min (Mus musculus [5]): 1; Net turns/min (Mus musculus [6]): 2.6
2 | NC12CC3CC(CC(C3)C1)C2 [AMANTADINE] | – | – | – | – | – | 87 | 201 | 243 | 2.44 | Activity (Mus musculus [10]): 44; Net turns/min (Mus musculus [12]): 1.1
3 | CCCC12CC3CC(CC(N)(C3)C1)C2 | – | – | – | 75 | 94 | 75 | – | – | 3.76 | –
4 | CCC12CC3CC(N)(C1)CC(CC)(C3)C2 | 1.6 | 478 | – | 154 | 716 | 383 | – | – | 4.36 | –
5 | CC12CC3CC(C1)CC(N)(C3)C2 | – | – | – | – | – | 37 | 144 | 383 | 3.01 | –
6 | CN1CCc2cccc3c2[C@H]1Cc1ccc(O)c(O)c1-3 [APOMORPHINE] | – | – | – | – | – | – | – | – | – | Net turns/min (Mus musculus [15]): 2.6
7 | CC12CC3(C)CC(C)(C1)CC(N)(C2)C3 | – | – | 1.2 | 148 | – | 264 | 351 | 472 | 4.01 | Activity (Mus musculus [16]): Lethal; Net turns/min (Mus musculus [17]): 1
8 | CC(N)Cc1ccccc1 (stereo not drawn) [AMPHETAMINE] | – | – | – | – | – | – | – | – | – | Activity (Mus musculus [18]): 562; Activity (Mus musculus [19]): 177; Net turns/min (Mus musculus [20]): 5.5; Activity (Mus musculus [21]): 993
9 | CCC12CC3CC(CC(N)(C3)C1)C2 | 1.2 | 522 | 2 | 61 | 237 | 147 | – | – | 3.4 | Activity (Mus musculus [22]): 432; Net turns/min (Mus musculus [5]): 1.3; Net turns/min (Mus musculus [6]): 1.2; Activity (Mus musculus [23]): 368
